Assay results taken from patent US11191809B2, “Composition in powder form comprising iron-milk protein complexes and probiotic bacteria” (NESTEC S.A., priority 2016, dated 2021).

Tested on: probiotic bacteria
Experiment: Viability of probiotic bacteria with iron sources (general finding of the inventors)
Type: cell-based
Conditions: general statement; reconstitution of powder with a liquid

SMILES: O.O.O.O.O.O.O.O=S(=O)([O-])[O-].[Fe+2] [ferrous sulphate heptahydrate]
- loss of viability of probiotic bacteria: significant loss of viability
